Where no end group is shown, it is not given here.
What was measured:
[1] = test system: rodent models of epilepsy; conditions: several rodent models of epilepsy; cited from earlier work
[2] = test system: rat facial nerve; assay: Rat facial nerve compression model of peripheral nerve injury, restoration of whisker movement; assay type: in vivo
Method: In the study in vivo, topiramate was evaluated in a rat facial nerve compression model of peripheral nerve injury. Rats were anesthetized, their skin and muscle excised to visualize the facial nerve. The nerve was injured near the stylom by compression with forceps. The wound was sutured and the rat allowed to recover before compound administration. The rats were divided into three groups: vehicle-treated, topiramate-treated (p.o., 20 mg/kg) and α-MSH-treated (s.c., 1 mg/kg). Compounds were administered twice daily for 14 days post-surgery. Facial nerve compression causes paralysis of the whisker muscle ipsilateral to the injury site. Restoration of whisker movement (lesioned versus non-lesioned side) was monitored daily for 14 days. Spontaneous recovery of whisker movement was detected as early as 10 days post-surgery with full recovery achieved by 13 days.
FIG. 3 is a line graph illustrating the effects of topiramate and α-MSH on the restoration of facial nerve function in rats, as measured by the rate whisker movement. The total rate of whisker movement on the side that the facial nerve was not injured was assigned a value of 100. Whisker movement on the side of the injured nerve is presented as a percent ±SEM of the whisker movement on the non-injured side. The rate of whisker movement was monitored visually by a skilled observer blinded to the treatment each rat received.

[3] = test system: rat cerebral cortical cells; assay: Neurite outgrowth in rat cerebral cortical cell cultures, MAP-2 immunofluorescence; assay type: cell-based; conditions: p<0.05
Method: (§1) In studies in vitro, cultures of rat hippocampal and cerebral cortical cells were established from embryonic day 18 pups. The cells were grown in culture wells (plates) for seven days in the presence of various concentrations of topiramate (0.1 nM-100 nM), or the neurotrophic factors BDNF (brain-derived neurotrophic, 10 ng) and α-MSH (alpha-melanocyte stimulating hormone, 50 nM), or vehicle (isotonic saline). Each compound was added to the culture medium in a specified set of wells at the time the cells were plated and then again four days later when the culture media was removed and replaced with fresh media. On the seventh day in culture, the cells were treated with formalin, a tissue fixative. Subsequently, the cells were treated with a fluorescein-labeled antibody specific for microtubule associated protein-2 (MAP-2), a selective marker for dendritic processes. The amount of fluorescein-labeled antibody bound to MAP-2 (FITC signal) in each well was analytically determined. This information was then used to calculate the relative degree of neurite outgrowth for the cells in each well. […] FIG. 2 is a bar graph illustrating the effects of topiramate, BDNF,α-MSH and GPI on neurite outgrowth in rat cerebral cortical cell cultures, as measured by MAP-2 immunofluorescence. […]

[4] = test system: animal model of kindled epilepsy; conditions: cited from earlier work
[5] = test system: rat hippocampal cells; assay: Neurite outgrowth in rat hippocampal cell cultures, MAP-2 immunofluorescence; assay type: cell-based; conditions: seven days in culture, concentrations ranging from 100 nM to 100 μM, P<0.05
Method: as §1, with “wells ([…]),” for “wells (plates) for seven days in the presence of various concentrations of topiramate (0.1 nM-100 nM),”, “FIG. 1” for “FIG. 2”, “rat hippocampal” for “rat cerebral cortical”

[6] = test system: simple and complex partial seizures and secondarily generalized seizures; conditions: human epilepsy; cited from earlier work

Compound | block of seizures [1] | whisker movement recovery, day 11 ([2]; p.o., 20 mg/kg twice daily, day 11 post-surgery, vehicle=19%, p<0.001) [%] | whisker movement recovery, day 12 ([2]; p.o., 20 mg/kg twice daily, day 12 post-surgery, vehicle=68%, p<0.01) [%] | neurite outgrowth ([3]; 100 nM) | neurite outgrowth ([3]; 10 μM) | block of seizures [4] | increase in neurite outgrowth (FITC signal, MAP-2) versus vehicle [5] | efficacy in treating seizures in clinical trials [6] | increase in whisker movement recovery versus vehicle, days 11 and 12 ([2]; s.c., 1 mg/kg twice daily, days 11 and 12 post-surgery)
CC1(C)O[C@@H]2[C@@H](CO[C@@]3(COS(N)(=O)=O)OC(C)(C)O[C@@H]23)O1 [topiramate, 2,3:4,5-bis-O-(1-methylethylidene)-β-D-fructopyranose sulfamate] | effectively block seizures | 60 | 92 | 119 % of control | 119 % of control | effectively block seizures | significantly higher | effective as adjunctive therapy or as monotherapy | –
α-MSH: alpha-melanocyte stimulating hormone, neurotrophic factor used as comparator (SYSMEHFRWGKPV; ends and bridges not checked; UniProt P01189 138-150, looked up) | – | – | – | – | – | – | – | – | smaller, statistically nonsignificant increase

From patent US6583172B1, “Anticonvulsant derivatives useful in treating chronic neurodegenerative disorders” (priority 1999, dated 2003)
